Measurements: PubChem BioAssay (NCI)
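Growth conditions: 96-well plates. Treatment: test compound, 48 hours, 5 concentrations. Analysis: linear interpolation between bracketing concentrations; unreached endpoints set to highest concentration. TGI marks complete inhibition of growth.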

Assays:
Test in all cases: DTP human tumour cell line panel, 48 h
786-0 renal = system: 786-0 renal
NCI-H226 lung = system: NCI-H226 lung
SK-MEL-2 melanoma = system: SK-MEL-2 melanoma
UACC-257 melanoma = system: UACC-257 melanoma
SNB-19 CNS = system: SNB-19 CNS
BT-549 breast = system: BT-549 breast
T-47D breast = system: T-47D breast
UO-31 renal = system: UO-31 renal
TK-10 renal = system: TK-10 renal
CCRF-CEM leukemia = system: CCRF-CEM leukemia
OVCAR-8 ovarian = system: OVCAR-8 ovarian
SF-539 CNS = system: SF-539 CNS
IGROV1 ovarian = system: IGROV1 ovarian
HT29 colon = system: HT29 colon
U251 CNS = system: U251 CNS
MDA-N = system: MDA-N
HOP-62 NSCLC = system: HOP-62 NSCLC
MCF7 breast = system: MCF7 breast
OVCAR-4 ovarian = system: OVCAR-4 ovarian
PC-3 prostate = system: PC-3 prostate
UACC-62 melanoma = system: UACC-62 melanoma
SNB-75 CNS = system: SNB-75 CNS
HCT-116 colon = system: HCT-116 colon
MDA-MB-435 = system: MDA-MB-435
MOLT-4 leukemia = system: MOLT-4 leukemia
SN12C renal = system: SN12C renal
OVCAR-5 ovarian = system: OVCAR-5 ovarian
K-562 leukemia = system: K-562 leukemia
A549 NSCLC = system: A549 NSCLC
HS 578T breast = system: HS 578T breast
DU-145 prostate = system: DU-145 prostate
SK-MEL-5 melanoma = system: SK-MEL-5 melanoma
SF-295 CNS = system: SF-295 CNS
HCC-2998 colon = system: HCC-2998 colon
MALME-3M melanoma = system: MALME-3M melanoma
NCI-H522 lung = system: NCI-H522 lung
CAKI-1 renal = system: CAKI-1 renal
NCI/ADR-RES ovarian = system: NCI/ADR-RES ovarian
RXF 393 renal = system: RXF 393 renal
KM12 colon = system: KM12 colon
NCI-H460 lung = system: NCI-H460 lung
EKVX NSCLC = system: EKVX NSCLC
SK-OV-3 ovarian = system: SK-OV-3 ovarian
M14 melanoma = system: M14 melanoma
COLO 205 colon = system: COLO 205 colon
OVCAR-3 ovarian = system: OVCAR-3 ovarian
HCT-15 colon = system: HCT-15 colon
ACHN renal = system: ACHN renal
NCI-H23 lung = system: NCI-H23 lung
SF-268 CNS = system: SF-268 CNS
MDA-MB-231 breast = system: MDA-MB-231 breast
A498 renal = system: A498 renal

Measured: TGI

c1ccc(-c2cc(-c3cc(-c4ccccc4)n(-c4ccccc4)n3)nn2-c2ccccc2)cc1
> 100 µM: all assays above
